Results reported in the supplement of paper PMC6045584.
± gives the standard deviation of the averaged measurements.

What was measured:
[1] = compound: T1, Nc1nc2[nH]cnc2c(=S)[nH]1 [TIOGUANINE]; test: area under dose-response curve of surviving fraction (unscaled, Aref=0) (surviving fraction x log10(nM)); higher = more resistant; conditions: exposure time: 5 days; dose range 0.5-1000 nM
Summary of the method: (§1)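 Tumour cell lines in 384-well plates were exposed for five days to eight inhibitor concentrations from 0.5 to 1000 nM. Viability was read by CellTiter-Glo luminescence, normalised to DMSO-only wells, in three screens per line. Dose-response survival curves were fitted to surviving fractions by 3-parameter logistic regression in the drc R package. Area under the curve is the unscaled activity area (Aref = 0) over log10 dose.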

[2] = compound: T2, CN(C)C/C=C/C(=O)Nc1cc2c(Nc3ccc(F)c(Cl)c3)ncnc2cc1O[C@H]1CCOC1 [AFATINIB]; test: as above; conditions: exposure time: 5 days; dose range 0.5-1000 nM
Summary of the method: as §1

[3] = compound: T3, CNC(=O)c1ccc(N2C(=S)N(c3ccc(C#N)c(C(F)(F)F)c3)C(=O)C2(C)C)cc1F [MDV3100]; test: as above; conditions: exposure time: 5 days; dose range 0.5-1000 nM
Summary of the method: as §1

[4] = compound: T4, C=CC(=O)Nc1cc2c(Nc3ccc(F)c(Cl)c3)ncnc2cc1OCCCN1CCOCC1 [CANERTINIB]; test: as above; conditions: exposure time: 5 days; dose range 0.5-1000 nM
Summary of the method: as §1

[5] = compound: T5, CCCCCCCCCCCCCCCC(=O)Nc1ccn([C@@H]2O[C@H](CO)[C@@H](O)[C@@H]2C#N)c(=O)n1 [SAPACITABINE]; test: as above; conditions: exposure time: 5 days; dose range 0.5-1000 nM
Summary of the method: as §1

[6] = compound: T6, CC1(C)CC(=O)c2c(C(F)(F)F)nn(-c3ccc(C(N)=O)c(N[C@H]4CC[C@H](OC(=O)CN)CC4)c3)c2C1 [SNX-5422]; test: as above; conditions: exposure time: 5 days; dose range 0.5-1000 nM
Summary of the method: as §1

[7] = compound: T7, CC[C@@H]1C(=O)N(C)c2cnc(Nc3ccc(C(=O)NC4CCN(C)CC4)cc3OC)nc2N1C1CCCC1 [BI-2536]; test: as above; conditions: exposure time: 5 days; dose range 0.5-1000 nM
Summary of the method: as §1

[8] = compound: Cn1cc(C2=Nc3cc(NC(=O)C(N)C4CCCCC4)cc4c3C2=CNNC4=O)cn1; test: as above; conditions: exposure time: 5 days; dose range 0.5-1000 nM
Summary of the method: as §1

[9] = compound: T1, TIOGUANINE; test: surviving fraction relative to DMSO-only wells; higher = less growth inhibition; conditions: exposure time: 5 days
Summary of the method: (§2)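 Log-phase tumour cells were seeded at 250–500 per well in 384-well plates and, from 24 hours after seeding, exposed continuously for five days to inhibitors at 0.5, 1, 5, 10, 50, 100, 500 and 1000 nM. Surviving fraction is CellTiter-Glo luminescence normalised to the median of DMSO-only wells. Luminescence was measured after 10 minutes at room temperature, and only lines screened three times with replicate Pearson r >0.7 and median Z' >0.3 were kept.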

[10] = compound: T2, AFATINIB; test: as above; conditions: exposure time: 5 days
Summary of the method: as §2

[11] = compound: T3, MDV3100; test: as above; conditions: exposure time: 5 days
Summary of the method: as §2

[12] = compound: T4, CANERTINIB; test: as above; conditions: exposure time: 5 days
Summary of the method: as §2

[13] = compound: T5, SAPACITABINE; test: as above; conditions: exposure time: 5 days
Summary of the method: as §2

[14] = compound: T6, SNX-5422; test: as above; conditions: exposure time: 5 days
Summary of the method: as §2

[15] = compound: T7, BI-2536; test: as above; conditions: exposure time: 5 days
Summary of the method: as §2

[16] = compound: Cn1cc(C2=Nc3cc(NC(=O)C(N)C4CCCCC4)cc4c3C2=CNNC4=O)cn1; test: as above; conditions: exposure time: 5 days
Summary of the method: as §2

Test System: JIMT1 BREAST
- area under dose-response curve [1]: 3.25
- area under dose-response curve [2]: 2.62
- area under dose-response curve [3]: 3.33
- area under dose-response curve [4]: 2.93
- area under dose-response curve [5]: 2.84
- area under dose-response curve [6]: 2.23
- area under dose-response curve [7]: 0.911
- area under dose-response curve [8]: 2.96
- surviving fraction ([9]; 0.5 nM): 0.966 ± 0.018
- surviving fraction ([9]; 1 nM): 0.975 ± 0.023
- surviving fraction ([9]; 5 nM): 0.984 ± 0.034
- surviving fraction ([9]; 10 nM): 0.9947 ± 0.0086
- surviving fraction ([9]; 50 nM): 1.05 ± 0.015
- surviving fraction ([9]; 100 nM): 1.03 ± 0.025
- surviving fraction ([9]; 500 nM): 0.9495 ± 0.0077
- surviving fraction ([9]; 1000 nM): 0.912 ± 0.0067
- surviving fraction ([10]; 0.5 nM): 0.987 ± 0.023
- surviving fraction ([10]; 1 nM): 0.994 ± 0.029
- surviving fraction ([10]; 5 nM): 0.96 ± 0.015
- surviving fraction ([10]; 10 nM): 0.909 ± 0.044
- surviving fraction ([10]; 50 nM): 0.732 ± 0.028
- surviving fraction ([10]; 100 nM): 0.687 ± 0.049
- surviving fraction ([10]; 500 nM): 0.603 ± 0.012
- surviving fraction ([10]; 1000 nM): 0.301 ± 0.014
- surviving fraction ([11]; 0.5 nM): 0.964 ± 0.025
- surviving fraction ([11]; 1 nM): 0.9673 ± 0.007
- surviving fraction ([11]; 5 nM): 1.01 ± 0.02
- surviving fraction ([11]; 10 nM): 0.983 ± 0.02
- surviving fraction ([11]; 50 nM): 1.04 ± 0.048
- surviving fraction ([11]; 100 nM): 1.07 ± 0.076
- surviving fraction ([11]; 500 nM): 1.05 ± 0.055
- surviving fraction ([11]; 1000 nM): 0.982 ± 0.025
- surviving fraction ([12]; 0.5 nM): 0.896 ± 0.02
- surviving fraction ([12]; 1 nM): 0.904 ± 0.029
- surviving fraction ([12]; 5 nM): 0.94 ± 0.029
- surviving fraction ([12]; 10 nM): 0.911 ± 0.021
- surviving fraction ([12]; 50 nM): 0.968 ± 0.021
- surviving fraction ([12]; 100 nM): 0.897 ± 0.042
- surviving fraction ([12]; 500 nM): 0.633 ± 0.041
- surviving fraction ([12]; 1000 nM): 0.541 ± 0.042
- surviving fraction ([13]; 0.5 nM): 0.862 ± 0.018
- surviving fraction ([13]; 1 nM): 0.8617 ± 0.0045
- surviving fraction ([13]; 5 nM): 0.899 ± 0.032
- surviving fraction ([13]; 10 nM): 0.87 ± 0.025
- surviving fraction ([13]; 50 nM): 0.966 ± 0.046
- surviving fraction ([13]; 100 nM): 0.859 ± 0.04
- surviving fraction ([13]; 500 nM): 0.632 ± 0.015
- surviving fraction ([13]; 1000 nM): 0.558 ± 0.032
- surviving fraction ([14]; 0.5 nM): 0.994 ± 0.017
- surviving fraction ([14]; 1 nM): 0.973 ± 0.032
- surviving fraction ([14]; 5 nM): 1.01 ± 0.026
- surviving fraction ([14]; 10 nM): 1.01 ± 0.015
- surviving fraction ([14]; 50 nM): 0.792 ± 0.0081
- surviving fraction ([14]; 100 nM): 0.271 ± 0.029
- surviving fraction ([14]; 500 nM): 0.0693 ± 0.0067
- surviving fraction ([14]; 1000 nM): 0.0723 ± 0.0026
- surviving fraction ([15]; 0.5 nM): 0.941 ± 0.041
- surviving fraction ([15]; 1 nM): 0.737 ± 0.015
- surviving fraction ([15]; 5 nM): 0.2183 ± 0.0013
- surviving fraction ([15]; 10 nM): 0.181 ± 0.0095
- surviving fraction ([15]; 50 nM): 0.18 ± 0.017
- surviving fraction ([15]; 100 nM): 0.158 ± 0.02
- surviving fraction ([15]; 500 nM): 0.143 ± 0.0061
- surviving fraction ([15]; 1000 nM): 0.0883 ± 0.0045
- surviving fraction ([16]; 0.5 nM): 0.921 ± 0.046
- surviving fraction ([16]; 1 nM): 0.941 ± 0.051
- surviving fraction ([16]; 5 nM): 0.911 ± 0.023
- surviving fraction ([16]; 10 nM): 0.9362 ± 0.0086
- surviving fraction ([16]; 50 nM): 0.874 ± 0.037
- surviving fraction ([16]; 100 nM): 0.927 ± 0.042
- surviving fraction ([16]; 500 nM): 0.803 ± 0.011
- surviving fraction ([16]; 1000 nM): 0.424 ± 0.025

Test System: LM7 BONE
- area under dose-response curve [1]: 3.33
- area under dose-response curve [2]: 2.89
- area under dose-response curve [3]: 3.51
- area under dose-response curve [4]: 2.42
- area under dose-response curve [5]: 1.77
- area under dose-response curve [6]: 1.88
- area under dose-response curve [7]: 0.659
- area under dose-response curve [8]: 2.46
- surviving fraction ([9]; 0.5 nM): 0.966 ± 0.054
- surviving fraction ([9]; 1 nM): 0.984 ± 0.068
- surviving fraction ([9]; 5 nM): 1.02 ± 0.064
- surviving fraction ([9]; 10 nM): 1.05 ± 0.068
- surviving fraction ([9]; 50 nM): 1.08 ± 0.058
- surviving fraction ([9]; 100 nM): 1.07 ± 0.039
- surviving fraction ([9]; 500 nM): 0.965 ± 0.1
- surviving fraction ([9]; 1000 nM): 0.939 ± 0.13
- surviving fraction ([10]; 0.5 nM): 1.02 ± 0.049
- surviving fraction ([10]; 1 nM): 1 ± 0.14
- surviving fraction ([10]; 5 nM): 1.02 ± 0.074
- surviving fraction ([10]; 10 nM): 1.07 ± 0.026
- surviving fraction ([10]; 50 nM): 1.02 ± 0.026
- surviving fraction ([10]; 100 nM): 0.914 ± 0.091
- surviving fraction ([10]; 500 nM): 0.443 ± 0.051
- surviving fraction ([10]; 1000 nM): 0.169 ± 0.013
- surviving fraction ([11]; 0.5 nM): 0.992 ± 0.053
- surviving fraction ([11]; 1 nM): 1.01 ± 0.073
- surviving fraction ([11]; 5 nM): 1.07 ± 0.096
- surviving fraction ([11]; 10 nM): 1.06 ± 0.03
- surviving fraction ([11]; 50 nM): 1.15 ± 0.09
- surviving fraction ([11]; 100 nM): 1.14 ± 0.087
- surviving fraction ([11]; 500 nM): 1.07 ± 0.096
- surviving fraction ([11]; 1000 nM): 0.963 ± 0.05
- surviving fraction ([12]; 0.5 nM): 0.739 ± 0.015
- surviving fraction ([12]; 1 nM): 0.657 ± 0.0061
- surviving fraction ([12]; 5 nM): 0.791 ± 0.019
- surviving fraction ([12]; 10 nM): 0.75 ± 0.012
- surviving fraction ([12]; 50 nM): 0.88 ± 0.044
- surviving fraction ([12]; 100 nM): 0.872 ± 0.085
- surviving fraction ([12]; 500 nM): 0.655 ± 0.026
- surviving fraction ([12]; 1000 nM): 0.536 ± 0.027
- surviving fraction ([13]; 0.5 nM): 0.703 ± 0.044
- surviving fraction ([13]; 1 nM): 0.708 ± 0.036
- surviving fraction ([13]; 5 nM): 0.761 ± 0.015
- surviving fraction ([13]; 10 nM): 0.641 ± 0.077
- surviving fraction ([13]; 50 nM): 0.599 ± 0.037
- surviving fraction ([13]; 100 nM): 0.4143 ± 0.0032
- surviving fraction ([13]; 500 nM): 0.191 ± 0.036
- surviving fraction ([13]; 1000 nM): 0.162 ± 0.021
- surviving fraction ([14]; 0.5 nM): 1 ± 0.11
- surviving fraction ([14]; 1 nM): 0.896 ± 0.075
- surviving fraction ([14]; 5 nM): 0.946 ± 0.059
- surviving fraction ([14]; 10 nM): 0.904 ± 0.077
- surviving fraction ([14]; 50 nM): 0.294 ± 0.028
- surviving fraction ([14]; 100 nM): 0.176 ± 0.0099
- surviving fraction ([14]; 500 nM): 0.0897 ± 0.0035
- surviving fraction ([14]; 1000 nM): 0.0873 ± 0.01
- surviving fraction ([15]; 0.5 nM): 0.925 ± 0.054
- surviving fraction ([15]; 1 nM): 0.688 ± 0.027
- surviving fraction ([15]; 5 nM): 0.0677 ± 0.0055
- surviving fraction ([15]; 10 nM): 0.076 ± 0.0056
- surviving fraction ([15]; 50 nM): 0.137 ± 0.013
- surviving fraction ([15]; 100 nM): 0.128 ± 0.025
- surviving fraction ([15]; 500 nM): 0.0773 ± 0.004
- surviving fraction ([15]; 1000 nM): 0.0653 ± 0.012
- surviving fraction ([16]; 0.5 nM): 0.979 ± 0.073
- surviving fraction ([16]; 1 nM): 0.898 ± 0.06
- surviving fraction ([16]; 5 nM): 1.04 ± 0.07
- surviving fraction ([16]; 10 nM): 1.01 ± 0.11
- surviving fraction ([16]; 50 nM): 0.826 ± 0.017
- surviving fraction ([16]; 100 nM): 0.651 ± 0.033
- surviving fraction ([16]; 500 nM): 0.119 ± 0.015
- surviving fraction ([16]; 1000 nM): 0.0753 ± 0.0038
